Test [1] relates to NFTs and SPs (neurofibrillary tangles, β-amyloid senile plaques). The test can be described thus: [F-18]FDDNP PET, Logan plot relative distribution volume. The class given is in vivo, human. The following applies: cerebellum reference. How it is done: All scans were performed with ECAT HR or ECAT HR+ scanners (Siemens-CTI, Knoxville, Tenn.). The subjects were in the supine position with the imaging plane parallel to the orbito-meatal line and with their eyes open and ears unoccluded. A 20 min transmission scan was performed to correct PET data for radiation attenuation. 320-550 MBq of a PET tracer was injected as a bolus injection via the in-dwelling venous catheter, and the consecutive dynamic head PET scans were performed for 1 hour with [F-18]FDG or for 2 hours with [F-18]MPPF or with [F-18]FDDNP.
All PET scans were decay corrected and reconstructed using filtered-back projection (Hann filter, 5 mm FWHM) with scatter and attenuation correction. The resulting images contained either 47 contiguous slices with 3.4 mm plane-to-pane separation (EXACT HR) or 63 contiguous slices with the plane-to-plane separation of 2.42 mm (EXACT HR+).
Quantitation of [F-18]FDDNP data was performed using the Logan plot graphical analysis with the cerebellum as the reference region. Distribution volume ratio (DVR) parametric images were created as described elsewhere. ROIs were drawn bilaterally on the early frames of the dynamic PET scan (3 min to 6 min post-injection) using MRI as a guide bilaterally on the transaxial images on frontal lobe, on parietal lobe, on medial temporal lobe, and on lateral temporal lobe. In addition, a single ROI was placed on posterior cingulated gyrus. DV values for cortical regions were extracted from the [F-18]FDDNP DV parametric image using the above-described ROI set. DV values were determined for all 9 cortical ROIs and for cerebellum. Relative global neocortical [F-18]FDDNP distribution volume (global DVR) was determined by dividing the DV average value of the eight neocortical ROIs with the DV average value of cerebellar ROIs. In similar fashion, regional relative distribution volumes (DVRs) were determined for frontal, parietal, lateral temporal and medial temporal areas by dividing the DV average of both ROIs from the corresponding region with the DV average value of cerebellar ROIs. The posterior cingulated gyrus DVR was determined by dividing the cingulated gyrus DV value with the DV average value of cerebellar ROIs.

Test [2] concerns Tau aggregates and amyloid plaques. The test can be described thus: In vitro [F-18]FDDNP digital autoradiography on brain tissue slices. In kind it is binding, human. The method, then: Two AD and three control brain samples were obtained at the time of autopsy from the Alzheimer's Disease Research Center at USC Keck School of Medicine, Los Angeles. Glass mounted whole-hemisphere brain cryosections (100 μm thick), cut at the level of hippocampus, were incubated with 1.85 MBq/mL of […] in 50 mM Tris buffer/saline (pH=7.4) for 2 hours at room temperature. The samples were exposed to β^+-sensitive phosphor storage plates for 60 min, scanned in with BAS 5000 Phosphorimager, and analyzed with MacBAS software provided with the instrument (Fuji Film Medical Systems USA, Stamford, Conn.). […] All values were normalized to the inner layer, known to be well preserved in AD (16). [F-18]FDDNP autoradiography was performed as described elsewhere (17). In brief, the de-fattened tissue slices were incubated with 0.37 MBq/mL of [F-18]FDDNP in 1% ethanol in normal saline for 25 min at room temperature followed by differentiation in 60% 2-methyl-2-butanol (3 min). The sections were exposed to β^+-sensitive phosphor storage plates for 60 min and scanned in with BAS 5000 Phosphorimager.

“Also recorded” adds a separate entry of the source.

`CC(=C(C#N)C#N)c1ccc2cc(N(C)CC[18F])ccc2c1` [[F-18]FDDNP, 2-(1-{6-[(2-[F-18]fluoroethyl)(methyl)amino]-2-naphthyl}ethylidene)malononitrile]: in test [1] (AD group), the “FDDNP mean DVR ± 1 SD, Frontal Lobe” value was found to be 1.11 ± 0.03; the “FDDNP mean DVR ± 1 SD, Global” value was determined as 1.17±0.01; the “FDDNP mean DVR ± 1 SD, Lateral Temporal Lobe” value came to 1.17 ± 0.03; the “FDDNP mean DVR ± 1 SD, Medial Temporal Lobe” value worked out at 1.23 ± 0.04. Besides, in test [1] (AD group), the “FDDNP mean DVR ± 1 SD, Parietal Lobe” value is on record as 1.17 ± 0.03 and the “FDDNP mean DVR ± 1 SD, Posterior Cingulate Gyrus” value turned out to be 1.18 ± 0.06. Moreover, in test [1] (AD group, listed as FDDNP), the “FDDNP mean DVR ± 1 SD, Global” value came out at 1.17 ± 0.01. In test [1] (CTRL group), the “FDDNP mean DVR ± 1 SD, Frontal Lobe” value was determined as 1.05 ± 0.01; the “FDDNP mean DVR ± 1 SD, Global” value is listed as 1.08±0.03; the “FDDNP mean DVR ± 1 SD, Lateral Temporal Lobe” value is 1.07 ± 0.03; the “FDDNP mean DVR ± 1 SD, Medial Temporal Lobe” value was determined as 1.12 ± 0.05. In addition, in test [1] (CTRL group), the “FDDNP mean DVR ± 1 SD, Parietal Lobe” value was 1.07 ± 0.03 and the “FDDNP mean DVR ± 1 SD, Posterior Cingulate Gyrus” value amounted to 1.07 ± 0.05. The “FDDNP mean DVR ± 1 SD, Global” value in test [1] (CTRL group, listed as FDDNP) is reported as 1.08 ± 0.03. In test [1] (MCI group), the “FDDNP mean DVR ± 1 SD, Frontal Lobe” value stood at 1.08 ± 0.01; the “FDDNP mean DVR ± 1 SD, Global” value was determined as 1.12 ± 0.01; the “FDDNP mean DVR ± 1 SD, Lateral Temporal Lobe” value was found to be 1.13 ± 0.03; the “FDDNP mean DVR ± 1 SD, Medial Temporal Lobe” value was 1.19 ± 0.02. For the same compound, in test [1] (MCI group), the “FDDNP mean DVR ± 1 SD, Parietal Lobe” value amounted to 1.09 ± 0.03 and the “FDDNP mean DVR ± 1 SD, Posterior Cingulate Gyrus” value came to 1.12 ± 0.03. For the same compound, in test [2] (AD tissue), the “[F-18]FDDNP binding to gray matter, autoradiography” value was “increased in the gray matter of temporal and limbic lobes; also recorded: strong [F-18]FDDNP binding to the gray matter in the temporal lobe and in cingulated gyrus”. Moreover, the “[F-18]FDDNP binding to gray matter, autoradiography” value in test [2] (normal control brain samples) was “uniformly low; also recorded: none of the gray matter areas from the normal control brain samples showed [F-18]FDDNP binding above background levels in white matter”.

The values above are taken from US20070218002A1, “Method for Detecting Alzheimer's Disease and other Forms of Dementia, and Measuring Their Progression” (priority 2004, published 2007).
